Laboratory results as given in US20250228855A1, “PYRAZINAMIDE COMPOUNDS” (The General Hospital Corporation, priority 2022, published 2025).
Like-named read-outs stand apart in the source and are kept apart here.

Experiments:
PfcProRS = PfcProRS (Plasmodium falciparum, UniProt Q8I5R7); assay: TR-FRET ligand displacement assay with tracer MAT379, PfcProRS; type: binding
HsProRS = biological target: T1, HsProRS (Homo sapiens, UniProt P07814); assay: TR-FRET ligand displacement assay with tracer MAT379, HsProRS; type: binding
T1 sequence (P07814 1007-1512 limits assumed): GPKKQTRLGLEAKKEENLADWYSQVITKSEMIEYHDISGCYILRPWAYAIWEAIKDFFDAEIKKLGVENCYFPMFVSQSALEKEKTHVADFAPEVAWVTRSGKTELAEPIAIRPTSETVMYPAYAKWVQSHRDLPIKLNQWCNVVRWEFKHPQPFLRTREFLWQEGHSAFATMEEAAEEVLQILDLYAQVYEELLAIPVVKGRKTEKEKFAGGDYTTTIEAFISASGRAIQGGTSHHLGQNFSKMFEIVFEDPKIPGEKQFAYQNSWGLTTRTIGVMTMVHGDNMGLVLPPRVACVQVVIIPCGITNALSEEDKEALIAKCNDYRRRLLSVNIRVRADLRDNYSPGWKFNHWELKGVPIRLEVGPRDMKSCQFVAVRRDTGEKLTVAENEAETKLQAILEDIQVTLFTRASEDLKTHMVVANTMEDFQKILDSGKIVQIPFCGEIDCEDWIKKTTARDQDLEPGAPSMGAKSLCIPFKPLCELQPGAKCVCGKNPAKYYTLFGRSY

P. falciparum Dd2-2D4 = assay: P. falciparum asexual blood stage growth assay, wild-type Dd2-2D4; conditions: Plasmodium falciparum; for EC50: DD2, 72 h, read-out: Dd2 (EC50 [nM]) wt
Experimental: Asexual blood stage (ABS) P. falciparum parasites were treated with test compounds at varying concentrations for 72 h, followed by quantification of parasite growth by SYBR Green staining.
P. falciparum Asexual Blood Stage Growth Assay: This assay was performed as previously described.

[1] = PfcProRS (KD [nM]) +proline, 100 μM Pro
[2] = no proline, no ATP, read-out: PfcProRS (KD [nM]) −
[3] = no proline, no ATP, read-out: HsProRS (KD [nM]) −
[4] = read-out: PfcProRS (KD [nM]) +proline, 100 μM Pro
[5] = read-out: HsProRS (KD [nM]) +proline, 100 μM Pro

Sequence of PfcProRS (Q8I5R7 whole entry): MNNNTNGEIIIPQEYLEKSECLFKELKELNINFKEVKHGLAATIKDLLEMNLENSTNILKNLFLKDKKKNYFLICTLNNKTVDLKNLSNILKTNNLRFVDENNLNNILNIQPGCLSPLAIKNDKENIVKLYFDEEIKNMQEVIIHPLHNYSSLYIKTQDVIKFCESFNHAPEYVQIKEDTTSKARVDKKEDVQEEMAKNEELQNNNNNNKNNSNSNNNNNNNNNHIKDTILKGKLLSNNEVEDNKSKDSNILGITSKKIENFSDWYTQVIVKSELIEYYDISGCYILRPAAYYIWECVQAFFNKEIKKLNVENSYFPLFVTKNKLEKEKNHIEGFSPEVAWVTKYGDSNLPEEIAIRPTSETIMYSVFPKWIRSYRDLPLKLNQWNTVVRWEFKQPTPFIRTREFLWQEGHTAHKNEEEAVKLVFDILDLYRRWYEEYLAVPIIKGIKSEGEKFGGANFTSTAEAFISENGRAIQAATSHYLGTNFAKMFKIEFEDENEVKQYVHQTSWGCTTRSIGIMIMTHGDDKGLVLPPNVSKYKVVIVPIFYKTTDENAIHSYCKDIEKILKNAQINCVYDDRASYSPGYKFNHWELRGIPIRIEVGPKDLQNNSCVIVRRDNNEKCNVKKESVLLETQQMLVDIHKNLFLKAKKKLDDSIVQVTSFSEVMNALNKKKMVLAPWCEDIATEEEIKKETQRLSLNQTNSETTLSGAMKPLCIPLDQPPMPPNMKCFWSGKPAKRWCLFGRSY

Row | Compound | Kd (PfcProRS; [1]) | Kd (PfcProRS; [2]) | Kd (HsProRS) | Kd (HsProRS; [3]) | EC50 (P. falciparum Dd2-2D4) | also measured
1 | NC(=O)Nc1nccnc1C(=O)NC1Cc2ccccc2C1 [Compound 23, N-(2,3-dihydro-1H-inden-2-yl)-3-ureidopyrazine-2-carboxamide] | > 2180 nM | > 2860 nM | > 5090 nM | > 8720 nM | 12100 nM | –
2 | Nc1nccnc1C(=O)NC1Cc2ccccc2C1 [Compound 45, 3-amino-N-(2,3-dihydro-1H-inden-2-yl)pyrazine-2-carboxamide] | > 2180 nM | > 2860 nM | > 5090 nM | > 8720 nM | 13600 nM | –
3 | CNc1nccnc1C(=O)NC1Cc2ccccc2C1 [Compound 46, N-(2,3-dihydro-1H-inden-2-yl)-3-(methylamino)pyrazine-2-carboxamide] | > 2180 nM | > 2860 nM | > 5090 nM | > 8720 nM | 8110 nM | –
4 | O=c1[nH]c2nccnc2c(=O)n1C1Cc2ccccc2C1 [Compound 47, 3-(2,3-dihydro-1H-inden-2-yl)pteridine-2,4(1H,3H)-dione] | > 2180 nM | > 2860 nM | – | > 8720 nM | 11100 nM | –
5 | Nc1nccnc1C(=O)NC1CCCCC1 [Compound 48, 3-amino-N-cyclohexylpyrazine-2-carboxamide] | > 2180 nM | > 2860 nM | > 5090 nM | > 8720 nM | 8740 nM | –
6 | O=C(NC1CCCCC1)c1nccnc1NC(=O)C1Cc2ccccc2C1 [Compound 49, N-cyclohexyl-3-(2,3-dihydro-1H-indene-2-carboxamido)pyrazine-2-carboxamide] | > 2180 nM | > 2860 nM | > 5090 nM | > 8720 nM | 6800 nM | –
7 | O=C(NC1Cc2ccccc2C1)c1nccnc1NS(=O)(=O)C1CCCCC1 [Compound 50, 3-(cyclohexanesulfonamido)-N-(2,3-dihydro-1H-inden-2-yl)pyrazine-2-carboxamide] | > 2180 nM | > 2860 nM | > 5090 nM | > 8720 nM | 13000 nM | –
8 | CC(C)(C)OC(=O)NCCCCCC(=O)NCCCCCC(=O)NC1CCN(C(=O)Nc2nccnc2C(=O)NC2Cc3ccccc3C2)CC1 [MAT420] | – | – | – | – | – | Kd (PfcProRS; [4]): 332 nM; Kd (PfcProRS; read-out: PfcProRS (KD [nM]) −, no proline, no ATP): 292 nM; Kd (HsProRS; [5]): 781 nM; Kd (HsProRS; read-out: HsProRS (KD [nM]) −, no proline, no ATP): 415 nM
9 | NCCCCCC(=O)NCCCCCC(=O)NC1CCN(C(=O)Nc2nccnc2C(=O)NC2Cc3ccccc3C2)CC1 [MAT421] | – | 2280 nM | – | 2340 nM | – | Kd (PfcProRS; [4]): 1960 nM; Kd (HsProRS; [5]): 2260 nM
10 | Nc1ncnc2c1ncn2[C@@H]1O[C@H](COS(=O)(=O)NC(=O)OC2CCCNC2CC(=O)Cn2cnc3cc(Br)c(Cl)cc3c2=O)[C@@H](O)[C@H]1O (stereo partly drawn) [MAT430, ((2R,3S,4R,5R)-5-(6-amino-9H-purin-9-yl)-3,4-dihydroxytetrahydrofuran-2-yl)methy ((((2S,3R)-2-(3-(7-bromo-6-chloro-4-oxoquinazolin-3(4H)-yl)-2-oxopropyl)piperidin-3-yl)oxy)carbonyl)sulfamate] | – | 5.01 nM | – | 18.4 nM | – | –
11 | O=C(CCCCCNC(=S)NC1CCCCC1)NC1CCN(C(=O)Nc2nccnc2C(=O)NC2Cc3ccccc3C2)CC1 [MAT483] | – | 198 nM | – | 1000 nM | – | Kd (PfcProRS; [4]): 171 nM; Kd (HsProRS; [5]): 3020 nM
12 | O=C(NS(=O)(=O)N1CCN(C(=O)Nc2nccnc2C(=O)NC2Cc3ccccc3C2)CC1)OCCn1cnc2ccccc2c1=O [MAT512, 2-(4-oxoquinazolin-3(4H)-yl)ethyl ((4-((3-((2,3-dihydro-1H-inden-2-yl)carbamoyl)pyrazin-2-yl)carbamoyl)piperazin-1-yl)sulfonyl)carbamate] | – | – | – | – | > 10000 nM | –
13 | O=C(NS(=O)(=O)NC1CCN(C(=O)Nc2nccnc2C(=O)NC2Cc3ccccc3C2)CC1)OCCn1cnc2ccccc2c1=O [MAT513, 2-(4-oxoquinazolin-3(4H)-yl)ethyl (N-(1-((3-((2,3-dihydro-1H-inden-2-yl)carbamoyl)pyrazin-2-yl)carbamoyl)piperidin-4-yl)sulfamoyl)carbamate] | – | – | – | – | 4830 nM | Kd (PfcProRS; absence of proline, read-out: KD for PfcProRS): 20.3 nM; Kd (HsProRS; absence of proline, read-out: KD for HsProRS): 157 nM; IC50 (P. falciparum Dd2-2D4; DD2, read-out: IC50 for Dd2-2D4): 4830 nM
